Data from US20250082656A1, “DOSAGE REGIMENS FOR TREATMENT OF DENGUE INFECTION” (Atea Pharmaceuticals, Inc., priority 2022, published 2025).

Legend:
[1] = Plasma PK after single oral dose of AT-752, monkeys; assay type: in vivo, cynomolgus monkeys; conditions: monkeys, oral 300 mg/kg or 60 mg/kg
Method: Male cynomolgus monkeys were administered 300 mg/kg Compound 2 (AT-752). Blood samples were collected up to 24 hrs. post dose, plasma separated and analyzed for Compound 1 (AT-281), Compound 3 (AT-551), and Compound 6 (AT-273) by LC-MS/MS. Data are express as mean+/−SD (n=3-5/time point). The x-axis is time post the dose measured in hours and the y-axis is the plasma concentration of the metabolites measured in nanomoles/mL). The experimental procedure is provided in Example 14.
Male non-naïve cynomolgus monkeys (Hainan Jingang Laboratory Animal Co. Ltd., China), at least 2 kg body weight, were individually housed during the study in stainless steel mesh cages, provided ad libitum access to RO water, fed twice daily (except on the day of dosing when they were fed once) with ˜60 g Certified Monkey Diet each feed (Beijing Vital Keao Feed Co., Ltd., Beijing, China) and given daily treats of fresh fruit. They (n=5) were administered a dose of Compound 2 (AT-752) at 300 mg/kg in 40% PEG400, 10% solutol HS15, 50% 100 mM citrate buffer, pH 4.5 (v/v) by oral gavage, and blood samples (˜0.5 mL) were collected at 1, 2, 4, 8, 12 and 24 h post dose. Plasma was separated at each time point for pharmacokinetics, and stored at −70° C. […] Separately, three monkeys were given an oral dose of Compound 2 (AT-752) as powder in capsules at 60 mg/kg ([…] (AT-281) equivalent dose of 55 mg/kg), and blood samples collected at 12, 24 and 48 h post dose.
(§1) Pharmacokinetic measurements for FIGS. 11, 12, 13, 14, and 15 were analyzed using LC-MS/MS according to the protocol described herein. Plasma samples were prepared for MS analysis by adding internal standards and extracting with 20 volumes chilled ACN. After vortex (800 rpm for 10 min) and centrifugation (4,000 rpm, 15 min, 4° C.), the supernatants (25 μL) were diluted with an equal volume of H2O, mixed and spun again. After adding internal standards, the PBMC samples (10^6 cells) were lyzed with 300 μL MeOH/H2O (70:30, v/v) and 40 mM dibutylammonium acetate (DBAA), mixed by vortex and centrifuged (12,000 rpm, 15 min, 4° C.). Aliquots of the supernatants (35 μL) were dried under nitrogen and reconstituted in H2O, then mixed and spun again. […] A binary nonlinear gradient with mobile phases A (0.1% formic acid in water) and B (0.1% formic acid in ACN) were used to elute samples at 0.8 mL/min, with a run time of 5 min. […] A binary nonlinear gradient with mobile phases A (0.001% NHr H2O, 0.18 mM DBAA in H2O) and B (10 mM N,N-dimethyl-hexylamine, 3 mM NH4OAc in ACN/H2O (50.50, v/v)) were used to elute samples at 0.5 mL/min, with a run time of 3 min. Standards in 50% MeOH were used for calibration. […] Internal standards (ISS) as described previously (Good et al., Preclinical evaluation of AT-527, a novel guanosine nucleotide prodrug with potent, pan-genotypic activity against hepatitis C virus. PLos One 15:e02271045) were used to correct for variations in recovery.
(§2) Data analysis of the pharmacokinetic data generated according to Example 21 and presented in FIGS. 11, 12, 13, 14, and 15 was analyzed according to the procedure described herein. Plasma concentrations of Compound 1 (AT-281), Compound 3 (AT-551) and Compound 6 (AT-273) were subjected to non-compartmental pharmacokinetic analysis using Phoenix WinNonlin software (version 6.3 or above, Pharsight, Mountain View, CA). The linear/log trapezoidal rule was applied in obtaining the PK parameters.

[2] = Plasma stability, human plasma; conditions: 2 μM, 37° C.
[3] = Pharmacokinetic study in SAD cohorts; assay type: in vivo, human; conditions: South/Southeast/East Asian versus mostly Caucasian cohorts, 1000 mg
Method: as §1, §2

[4] = Safety study in humans (SAD and MAD cohorts); assay type: in vivo, human
Method: Safety assessments including adverse events, standard clinical laboratory tests, vital sign measurements, electrocardiograms, and physical examinations were performed.

[5] = SD rat plasma
[6] = Plasma stability, cynomolgus monkey plasma; conditions: 2 μM, 37° C.
[7] = test system: DENV-2 D2Y98P; assay type: in vivo, AG129 mice
[8] = MAD 750 mg BID × 4 days plus one dose Day 5, 6 patients
[9] = MAD 750 mg TID × 4 days plus one dose Day 5, 6 patients
[10] = MAD 1000 mg QD × 7 days, 6 patients
[11] = SAD 1000 mg fasting, 6 patients
[12] = SAD 1000 mg, South/Southeast/East Asian origin, 6 patients
[13] = SAD 1500 mg fasting, 6 patients

## CNc1nc(N)nc2c1ncn2[C@@H]1O[C@H](CO[P@](=O)(N[C@@H](C)C(=O)OC(C)C)Oc2ccccc2)[C@@H](O)[C@@]1(C)F [Compound 2, isopropyl ((R)-(((2R,3R,4R,5R)-5-(2-amino-6-(methylamino)-9H-purin-9-yl)-4-fluoro-3-hydroxy-4-methyltetrahydrofuran-2-yl)methoxy)(phenoxy)phosphoryl)-L-alaninate]
[1]
  unusual or adverse clinical signs: no such signs noted
[2]
  % of starting concentration remained after 120 min of incubation: 93.5%
[3]
  pharmacokinetic ethnic sensitivity: absence of pharmacokinetic ethnic sensitivity
[4]; [8]
  Headache, subjects reporting: 1
  Nausea, subjects reporting: 1
  Vomiting, subjects reporting: 1
[4]; [9]
  Headache, subjects reporting: 0
  Nausea, subjects reporting: 0
  Vomiting, subjects reporting: 0
[4]; [10]
  Headache, subjects reporting: 0
  Nausea, subjects reporting: 0
  Vomiting, subjects reporting: 0
[4]; SAD 250 mg fasting, 6 patients
  Headache, subjects reporting: 0
  Nausea, subjects reporting: 0
  Vomiting, subjects reporting: 0
[4]; SAD 500 mg fasting, 7 patients
  Headache, subjects reporting: 2
  Nausea, subjects reporting: 0
  Vomiting, subjects reporting: 0
[4]; SAD 500 mg fed, 7 patients
  Headache, subjects reporting: 4
  Nausea, subjects reporting: 1
  Vomiting, subjects reporting: 0
[4]; [11]
  Headache, subjects reporting: 1
  Nausea, subjects reporting: 1
  Vomiting, subjects reporting: 1
[4]; [12]
  Headache, subjects reporting: 0
  Nausea, subjects reporting: 0
  Vomiting, subjects reporting: 0
[4]; [13]
  Headache, subjects reporting: 2
  Nausea, subjects reporting: 1
  Vomiting, subjects reporting: 2
[4]; healthy subjects, SAD 250-1500 mg and MAD cohorts, oral
  tolerability: well tolerated
[4]; healthy subjects, SAD and MAD cohorts
  serious adverse events or discontinuations due to adverse events: no serious adverse events or discontinuations due to adverse events were reported
[5]
  drug remaining at the first time point (10 min of incubation): no drug remaining
[6]
  % of starting concentration remained after 120 min of incubation: 98.2%
[7]; Day 4 to Day 9 pi, p<0.001 by t-test
  health scores versus vehicle control group: significantly better health scores
[7]; Day 6 pi, 1000 mg/kg loading, 500 mg/kg BID 7 days oral, p=0.000014 by t-test
  Viremia versus vehicle only group: significantly lower than the vehicle only group
[7]; Days 5, 7 and 8 pi, p<0.001 by t-test
  weight loss versus vehicle control mice: significantly reduced weight loss
[7]; by Day 7 pi
  spleen viral load versus control group: not statistically different
[7]; by Day 8 pi, virus still measurable in all surviving controls, p=0.0045
  Viremia: cleared in all treated animals
[7]; p=0.0004, Mantel-Cox log-rank test
  survival (Kaplan-Meier) versus vehicle control group: significantly improved the survival
